Results published in patent publication US6410566B1, “Cyclic amine derivatives and their use as drugs” (Teijin Limited, priority 2000, dated 2002).

Assays:
[1] = target: T1, binding of human MIP-1α to THP-1 cells (Homo sapiens, UniProt P32246); experiment: Inhibition of MIP-1α binding to THP-1 cells
T1 construct: endogenous in cells; host or cells: THP-1 (human monocytic leukemia cell line), whole cells
T1 sequence (P32246 1-355): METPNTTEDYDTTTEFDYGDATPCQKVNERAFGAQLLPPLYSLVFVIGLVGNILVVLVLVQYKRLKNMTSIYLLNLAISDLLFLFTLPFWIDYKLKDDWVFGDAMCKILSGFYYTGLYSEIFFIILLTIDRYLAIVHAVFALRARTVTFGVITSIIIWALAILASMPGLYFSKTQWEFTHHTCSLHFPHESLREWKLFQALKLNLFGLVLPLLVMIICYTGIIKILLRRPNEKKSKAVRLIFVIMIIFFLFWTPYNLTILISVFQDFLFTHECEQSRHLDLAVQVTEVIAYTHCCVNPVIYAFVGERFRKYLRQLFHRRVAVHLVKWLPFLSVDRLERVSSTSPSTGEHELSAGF
Protocol: Measurement of Inhibition of MIP-1α Binding to THP-1 Cells by Test Compounds
(§1) Human monocytic leukemia cell line THP-1 was suspended in assay buffer (RPMI-1640 (Gibco-BRL Co.) containing 0.1% BSA and 25 mM HEPES adjusted to pH 7.4) to give a cell suspension of a concentration of 1×10^7 cells/mL. The test compound was diluted in the assay buffer and used as the test compound solution. Iodinated human MIP-1α (DuPont NEN Co.) was diluted in assay buffer to 250 nCi/mL and used as the labeled ligand solution. In a 96 well filter plate (Millipore Co.), 25 μL of test compound solution, 25 μL of labeled ligand solution and 50 μL of cell suspension were aliquoted into each well in this order, stirred (total reaction volume 100 μL), and incubated for one hour at 18° C.
(§2) After the reaction, the reaction solution was filtered, and the filter was washed twice with 200 μL of cold PBS (200 μL of cold PBS was added and then filtered). The filter was air-dried and 25 μL of liquid scintillator was added into each well. The radioactivity retained by the cells on the filter were measured using TopCounit (Packard Instrument Co.).
To calculate the ability of test compounds to inhibit binding of human MIP-1α to THP-1 cells, non-specific binding determined by adding 100 ng of unlabeled human MIP-1α (Peprotech Co.) in place of the test compound was subtracted, while the counts with no test compound added was taken as 100%.
(§3) Inhibition (%)={1−(A−B)/(C−B)}×100
(A, counts with test compound added; B, counts with 100 ng of unlabeled human MIP-1α added; C, counts with [^125I]-labeled human MIP-1α added).

[2] = target: T2, binding of human MCP-1 to THP-1 cells (Homo sapiens, UniProt P41597); experiment: Inhibition of binding of [125I]-labeled baculovirus expressed human MCP-1 to THP-1 cells (Method 1); conditions: for inhibition at 100 µM: Method 1, at 100 μM
T2 construct: endogenous in cells; host or cells: THP-1 (human monocytic leukemia cell line), whole cells
T2 sequence (P41597 1-360 isoform P41597-2): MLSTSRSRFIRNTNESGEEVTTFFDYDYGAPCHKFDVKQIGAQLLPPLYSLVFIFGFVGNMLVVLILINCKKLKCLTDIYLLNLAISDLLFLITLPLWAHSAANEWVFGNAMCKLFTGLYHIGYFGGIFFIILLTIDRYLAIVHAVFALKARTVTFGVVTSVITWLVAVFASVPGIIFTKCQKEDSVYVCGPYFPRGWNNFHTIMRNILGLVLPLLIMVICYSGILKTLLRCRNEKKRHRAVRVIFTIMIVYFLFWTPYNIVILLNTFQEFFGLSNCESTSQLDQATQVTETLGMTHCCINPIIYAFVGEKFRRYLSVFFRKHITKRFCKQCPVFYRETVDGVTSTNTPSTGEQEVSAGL
Text: Measurement of Inhibition of MCP-1 Binding to THP-1 Cells 1. Construction of recombinant baculovirus carrying the human MCP-1 gene Based on the previously published human MCP-1 gene sequence (for example T. Yoshirnura et al., FEBS Lett., 1989, 244, 487-493), two synthetic DNA primers ([NT] and [NT]) flanked by restriction enzyme sites were used to amplify a DNA fragment from cDNA derived from human endothelial cells (purchased from Kurabow Co.); the amplified fragment was cut with the restriction enzymes (PstI and XbaI), ligated into a transfer vector pVL1393 (Invitrogen Co.), and the resulting vector was co-transfected along with infectious baculovirus into Sf-9 insect cells and the supernatant was plaque assayed to yield human MCP-1 gene baculovirus recombinant. […] Using the method of K. Ishii et al. […] The culture supernatant was affinity purified using a heparin Sepharose column (Pharmacia Co.) and then further purified using reverse phase HPLC (Vydac C18 column) to prepare purified human MCP-1. […] 3-1. […] The test. compound was diluted in the assay buffer and used as the test compound solution. [^125I]-labeled human MCP-1 described above was diluted in assay buffer to 1 mCi/mL and used as the labeled ligand solution. In a 96 well filter plate (Millipore Co.), 25 μL of test compound solution, 25 μL of labeled ligand solution and 50 μL of cell suspension were aliquoted into each well in this order, stirred (total reaction volume 100 μL), and incubated for one hour at 18° C. After the reaction, the reaction solution was filtered, and the filter was washed twice with 200 μL of cold PBS (200 μL of cold PBS was added and then filtered). The filter was air-dried and 25 μL of liquid sciatillator was added into each well. The radioactivity retained by the cells on the filter were measured using TopCount (Packard Instrument Co.). To calculate the ability of test compound to inhibit binding of human MCP-1 to THP-1 cells, non-specific binding determined by adding 100 ng of unlabeled human MCP-1 in place of the test compound was subtracted, while the counts with no test compound added was taken as 100%. Inhibition (%)=(1-(A-B)/(C-B))×100 (A, counts with test compound added; B, counts with 100 ng of unlabeled human MCP-1 added; C, counts with [^125I]-labeled human MCP-1 added).

THP-1 cells = experiment: Inhibition of cell chemotaxis caused by MCP-1; assay type: cell-based; conditions: Homo sapiens, MCP-1 20 ng/mL, read-out: inhibition of cell migration IC50
Protocol: Measurement of Inhibition of Cell Chemotaxis
In order to determine the inhibition of cell chemotaxis by the compounds of this invention, we measured cell chemotaxis caused by monocyte chemotactic factor MCP-1 using the human monocytic leukemia cell line THP-1 as the chemotactic cell according to the method of Fall et al. (J. Immunol. Methods, 190, 33,239-247). 2×10^6 cells/mL of THP-1 cells (suspended in RPMI-1640 (Flow Laboratories Co.)+10% FCS) was placed in the upper chamber (200 μL) of a 96 well micro-chemotaxis chamber (Neuroprobe; registered tradename), and human recombinant MCP-1 in a same solution (Peprotech Co.) at a final concentration of 20 ng/mL was placed in the lower chamber, with a polycarbonate filter (PVP-free, Neuroprobe; registered tradename) placed between the two chambers. These were incubated at 37° C. for 2 hr in 5% CO2.
The filter was removed, and the cells which had migrated to the underside of the filter was fixed, stained using Diff Quick (Kokusai Shiyaku Co.) and then quantitated using a plate reader (Molecular Device Co.) at a wavelength of 550 nm to determine the index of cell migration as a mean of 3 wells. In addition, test compounds were placed in the upper and lower chambers along with THP-1 and MCP-1, respectively, and the inhibition of cell migration (inhibition IC50 (μM)) was determined.

[3] = target: T2, binding of human MCP-1 to THP-1 cells; experiment: Inhibition of binding of [125I]-labeled baculovirus expressed human MCP-1 to THP-1 cells (Method 2); conditions: for inhibition at 1 µM: Method 2, at 1 μM
Text: 1. Construction of recombinant baculovirus carrying the human MCP-1 gene
Based on the previously published human MCP-1 gene sequence (for example T. Yoshirnura et al., FEBS Lett., 1989, 244, 487-493), two synthetic DNA primers (5′-[…]-3′ and 5′-[…]-3′) flanked by restriction enzyme sites were used to amplify a DNA fragment from cDNA derived from human endothelial cells (purchased from Kurabow Co.); the amplified fragment was cut with the restriction enzymes (PstI and XbaI), ligated into a transfer vector pVL1393 (Invitrogen Co.), and the resulting vector was co-transfected along with infectious baculovirus into Sf-9 insect cells and the supernatant was plaque assayed to yield human MCP-1 gene baculovirus recombinant.
2. Synthesis of [^125I]-labeled human MCP-1 expressed in baculovirus
Using the method of K. Ishii et al. (Biochem Biophys Research Communications, 1995, 206, 955-961), 5×10^6 Sf-6 insect cells was infected with 5×10^7 PFU (plaque forming units) of the above human MCP-1 recombinant baculovirus and cultured for 7 days in Ex-Cell 401 medium. The culture supernatant was affinity purified using a heparin Sepharose column (Pharmacia Co.) and then further purified using reverse phase HPLC (Vydac C18 column) to prepare purified human MCP-1. The purified human MCP-1 was protein labeled by Amersham Co. using the Bolton Hunter method to yield [^125I]-labeled baculovirus expressed human MCP-1 (specific activity 2000 Ci/mmol).
3-2. Measurement of inhibition of binding of [^125I]-labeled baculovirus expressed human MCP-1 to THP-1 cells (Method 2)
as §1, with “(50” for “(RPMI-1640 (Gibco-BRL Co.) containing 0.1% BSA and 25”, “HEPES,” for “HEPES adjusted to”, “7.4, 1.0 mM CaCl2, 5.0% mM MgCl2, 0.5% BSA)” for “7.4)”, “[^125I]-labeled” for “Iodinated”, “MCP-1 described above” for “MIP-1α (DuPont NEN Co.)”, “1 mCi/mL” for “250 nCi/mL”
as §2, with “TopCount” for “TopCounit”
To calculate the ability of test compound to inhibit binding of human MCP-1 to THP-1 cells, non-specific binding determined by adding 100 ng of unlabeled human MCP-1 in place of the test compound was subtracted, while the counts with no test compound added was taken as 100%.
as §3
(A, counts with test compound added; B, counts with 100 ng of unlabeled human MCP-1 added; C, counts with [^125I]-labeled human MCP-1 added).

Structure (SMILES): O=C(CNC(=O)c1ccccc1)NCC1CCN(Cc2ccc(Cl)cc2)CC1 [Compound No. 458, 4-{(N-Benzoylglycyl)amino}methyl-1-(4-chlorobenzyl)piperidine]
- inhibition at 10 µM [1]: 50 to 80%
- inhibition at 100 µM [2]: > 80%

Structure (SMILES): O=C(CNC(=O)c1cccc(C(F)(F)F)c1)NCC1CCN(Cc2ccc(Cl)cc2)CC1 [Compound No. 461, 1-(4-chlorobenzyl)-4-[{N-(3-(trifluoromethyl)benzoyl)glycyl}aminomethyl]piperidine]
- inhibition at 10 µM [1]: > 80%
- IC50 (THP-1 cells): < 100 nM

Structure (SMILES): CN(CC1CCN(Cc2ccc(Cl)cc2)CC1)C(=O)CNC(=O)c1cccc(C(F)(F)F)c1 [Compound No. 520, 1-(4-chlorobenzyl)-4-[N-methyl-N-{N-(3-(trifluoromethyl)benzoyl)glycyl}aminomethyl]piperidine]
- inhibition at 10 µM [1]: 50 to 80%
- inhibition at 10 µM ([2]; Method 1, at 10 μM): 50 to 80%

Structure (SMILES): O=C(NCC(=O)N(CC1CCN(Cc2ccc(Cl)cc2)CC1)CC(c1ccccc1)c1ccccc1)c1ccccc1 [Compound No. 524, 4-{N-(N-Benzoylglycyl)-N-(2,2-diphenylethyl)aminomethyl}-1-(4-chlorobenzyl)piperidine]
- inhibition at 10 µM [1]: 20 to 50%

Structure (SMILES): CC(C)[C@H](NC(=O)c1cccc(C#N)c1)C(=O)NCC1CCN(Cc2ccc(Cl)cc2)CC1 [Compound No. 619, 1-(4-Chlorobenzyl)-4-[{N-(3-cyanobenzoyl)valyl}aminomethyl]piperidine]
- inhibition at 10 µM [1]: 50 to 80%

Structure (SMILES): CC(C)c1ccc(S(=O)(=O)NCC(=O)NCC2CCN(Cc3ccc(Cl)cc3)CC2)cc1 [Compound No. 869, 1-(4-Chlorobenzyl)-4-[{N-(4-isopropylphenylsulfonyl)glycyl}aminomethyl]piperidine]
- inhibition at 10 µM [1]: > 80%
- inhibition at 100 µM [2]: 20 to 50%

Structure (SMILES): Nc1ccc(Br)cc1C(=O)NCC(=O)NCC1CCN(Cc2ccc(Cl)cc2)CC1 [Compound No. 1042, 4-{N-(2-amino-5-bromobenzoyl)glycyl}aminomethyl-1-(4-chlorobenzyl)piperidine]
- inhibition at 2 µM [1]: 20 to 50%
- inhibition at 10 µM [1]: 50 to 80%
- inhibition at 1 µM [3]: > 80%
- inhibition at 10 µM ([3]; Method 2, at 10 μM): > 80%
- IC50 (THP-1 cells): < 100 nM

Structure (SMILES): Nc1cc(Cl)ccc1CN1CCC(CNC(=O)CNC(=O)c2cc(C(F)(F)F)ccc2N)CC1 [Compound No. 1919, 4-[{N-(2-Amino-5-trifluoromethylbenzoyl)glycyl}aminomethyl]-1-(2-amino-4-chlorobenzyl)piperidine]
- inhibition at 2 µM [1]: 20 to 50%
- inhibition at 1 µM [3]: > 80%
- IC50 (THP-1 cells): < 100 nM

Structure (SMILES): O=C(CNC(=O)c1ccccc1)NC1CCN(Cc2ccc(Cl)cc2)C1 (centres unmarked) [compound 1, 3-(N-Benzoylglycyl)amino-1-(4-chlorobenzyl)pyrrolidine]
- inhibition at 10 µM [1]: 50 to 80%
- inhibition at 100 µM [2]: 50 to 80%
